Assay results as given in ChEMBL document CHEMBL5550217, “Discovery of gem-Dimethyl-hydroxymethylpyridine Derivatives as Potent Non-nucleoside RSV Polymerase Inhibitors” (J Med Chem, 2024).
pEC50, pIC50: −log10 of the molar value.

Legend:
[1] = Clearance in Sprague-Dawley rat at 1.25 mg/kg, iv; type: ADME, organism-based; settings: in vivo
[2] = Inhibition of RSV RNA polymerase assessed as RNA products using […] template by SPA primer extension enzymatic assay; parameters: species or system Respiratory syncytial virus
[3] = Cytotoxicity against human HeLa cells measured after 3 days by ATPlite kit assay; type: toxicity, cell-based; settings: time 3 day
[4] = Metabolic stability in human hepatocytes assessed as intrinsic clearance per 10^6 cells at 1 uM measured upto 180 mins by LC-MS/MS analysis; type: ADME, cell-based, Hepatocyte; settings: read-out: CLH
[5] = Metabolic stability in rat hepatocytes assessed as intrinsic clearance per 10^6 cells at 1 uM measured upto 180 mins by LC-MS/MS analysis; type: ADME, cell-based, Hepatocyte; settings: read-out: CLH
[6] = tested on: Respiratory syncytial virus; test: Antiviral activity against Respiratory syncytial virus (RSV)-A2-eGFP infected in human HeLa cells assessed as eGFP expression measured after 3 days by RSV Cell-based infection assay; type: functional, organism-based; settings: 72 h
[7] = Drug recovery in bile duct cannulated rat bile measured for 48 hrs; type: ADME, tissue-based; settings: read-out: Drug recovery
[8] = Drug recovery in bile duct cannulated rat urine measured for 48 hrs; type: ADME, tissue-based; settings: read-out: Drug recovery
[9] = tested on: Respiratory syncytial virus; test: Antiviral activity against Respiratory syncytial virus (RSV) infected in human APC-126 cells assessed as replicon by measuring protein adjusted effective concentration in the presence of 40% human serum measured after 3 days by Renilla Glo assay; type: functional, organism-based; settings: 72 h
[10] = Inhibition of RSV RNA polymerase assessed as RNA products using […] template by Flashplate primer extension enzymatic assay; parameters: species or system Respiratory syncytial virus
[11] = Metabolic stability in human liver microsomes assessed as intrinsic clearance; type: ADME, Microsome; settings: read-out: CLH
[12] = Metabolic stability in rat hepatocytes assessed as intrinsic clearance measured per 10^6 cells; type: ADME, cell-based, Hepatocyte; settings: read-out: CLH
[13] = tested on: Respiratory syncytial virus; test: Antiviral activity against Respiratory syncytial virus (RSV) assessed as reduction in replicon RNA by Renilla Luciferase assay system; type: functional, organism-based; settings: human respiratory syncytial virus
[14] = Metabolic stability in human hepatocytes assessed as intrinsic clearance measured per 10^6 cells; type: ADME, cell-based, Hepatocyte; settings: read-out: CLH

clearance [1] [mL/min/kg] | pIC50 [2] | hepatocyte CLint at 1 µM [4] [µL/min/1e6 cells] | hepatocyte CLint at 1 µM [5] [µL/min/1e6 cells] | pEC50 [6] | dose excreted at 48 h [7] [%] | dose excreted at 48 h [8] [%] | pEC50 [9] | pIC50 [10] | microsomal CLint [11] [µL/min/mg] | hepatocyte CLint [12] [µL/min/1e6 cells] | pEC50 [13] | hepatocyte CLint [14] [µL/min/1e6 cells] | Compound | CC50 at 72 h [3] [nM]
67.3 | 9.28 | 12 | 72 | 8.85 | – | – | – | – | – | – | – | – | COc1cc(C(=O)NC[C@](O)(c2cc3c(c(-c4ccc(F)cc4)n2)OC[C@]3(C)NS(C)(=O)=O)C(F)(F)F)cc2nc(N)sc12 | 13600
51.2 | 8.47 | 4.3 | 20 | 7.34 | 77 | 6 | – | – | – | – | – | – | COc1cc(C(=O)NC[C@](O)(c2cc3c(c(-c4ccc(F)cc4)n2)OC[C@]3(C)NS(C)(=O)=O)C(F)(F)F)cn2cc(CO)nc12 | > 90900
6.13 | 8.43 | < 1.9 | 11 | 7.72 | – | – | – | – | – | – | – | – | CC(=O)N[C@@]1(C)COc2c1cc([C@@](O)(CNC(=O)c1cc(OC3CC3)c3ncccc3c1)C(F)(F)F)nc2-c1ccc(F)cc1 | 46800
– | 8.88 | < 1.9 | 93 | 8.17 | – | – | 6.48 | – | – | – | – | – | COc1cc(C(=O)NC[C@](O)(c2cc(C(C)(C)O)c(F)c(-c3ccc(F)cc3)n2)C(F)(F)F)cc2cc(F)nnc12 | 17300
60.9 | 9.15 | 3 | 73 | 8.28 | – | – | – | – | – | – | – | – | COc1cc(C(=O)NC[C@](O)(c2cc3c(c(-c4ccc(F)cc4)n2)OC[C@]3(C)NS(C)(=O)=O)C(F)(F)F)cc2cccnc12 | 10200
– | – | < 1.9 | < 1.9 | 7.59 | – | – | 6.10 | 9.14 | – | – | – | – | COc1cc(C(=O)NC[C@](O)(c2cc(C(C)(C)O)c(F)c(-c3ccc(F)cc3)n2)C(F)(F)F)cc2cc(C(F)(F)F)cnc12 | 12600
13.6 | 9.08 | 4.9 | 54 | 8.57 | – | – | – | – | – | – | – | – | COc1cc(C(=O)NC[C@](O)(c2cc3c(c(-c4ccc(F)cc4)n2)OC[C@]3(C)NC(C)=O)C(F)(F)F)cc2cc(C)cnc12 | 14500
– | 7.64 | – | 13 | 7.85 | – | – | – | – | – | – | – | – | COc1cc(C(=O)NC[C@](O)(c2cc3c(c(-c4ccc(F)cc4)n2)OC[C@]3(C)NC(C)=O)C(F)(F)F)ccc1OC[C@@H](C)O | 73200
– | 8.96 | 4.3 | 57 | 8.42 | – | – | 7.32 | – | – | – | – | – | COc1cc(C(=O)NC[C@](O)(c2cc(C(C)(C)O)c(F)c(-c3ccc(F)cc3)n2)C(F)(F)F)cc2cc(C)c(F)nc12 | 13100
– | 9.43 | 14 | – | 8.49 | – | – | 7.39 | – | – | – | – | – | CCc1cc2cc(C(=O)NC[C@](O)(c3cc(C(C)(C)O)c(F)c(-c4ccc(F)cc4)n3)C(F)(F)F)cc(OC)c2nn1 | 21800
19 | 8.37 | 8.8 | 11 | 7.82 | – | – | – | – | – | – | – | – | COc1cc(C(=O)NC[C@](O)(c2cc3c(c(-c4ccc(F)cc4)n2)OC[C@]3(C)NC(C)=O)C(F)(F)F)cc2cccnc12 | 12700
– | 9.66 | < 1.2 | 13 | 9.00 | – | – | 6.96 | – | – | – | – | – | COc1cc(C(=O)NC[C@](O)(c2cc(C(C)(C)O)c(F)c(-c3ccc(F)cc3)n2)C(F)(F)F)cc2cc(Cl)nnc12 | 9900
– | 8.93 | < 1.2 | – | 8.59 | – | – | 6.65 | – | – | – | – | – | COc1cc(C(=O)NC[C@](O)(c2cc(C(C)(C)O)c(F)c(-c3ccc(F)cc3)n2)C(F)(F)F)cc2cc(C3CC3)nnc12 | 8800
– | 9.40 | < 1.9 | 6.9 | 8.46 | – | – | 6.72 | – | – | – | – | – | COc1cc(C(=O)NC[C@](O)(c2cc(C(C)(C)O)c(F)c(-c3ccc(F)cc3)n2)C(F)(F)F)cc2cc(C(F)F)nnc12 | 18300
– | 9.04 | – | – | 8.29 | – | – | 5.91 | – | – | – | – | – | COc1cc(C(=O)NC[C@](O)(c2cc(C(C)(C)O)c(F)c(-c3ccc(F)cc3)n2)C(F)(F)F)cc2cc(OC(F)F)nnc12 | 8900
– | 9.02 | – | – | 8.07 | – | – | 7.21 | – | > 347 | – | – | – | COc1cc(C(=O)NC[C@](O)(c2cc(C(C)(C)O)c(F)c(-c3ccc(F)cc3)n2)C(F)(F)F)cc2cc(C)c(C)nc12 | 18400
– | 9.60 | 9.7 | – | 8.59 | – | – | – | – | – | – | – | – | COc1cc(C(=O)NC[C@](O)(c2nc(-c3ccc(F)cc3)c(F)c(C(C)(C)O)c2F)C(F)(F)F)cc2cc(C)cnc12 | 43000
– | – | < 1.9 | – | 7.27 | – | – | 5.66 | 8.70 | – | – | – | – | COc1cc(C(=O)NC[C@](O)(c2cc(C(C)(C)O)c(F)c(-c3ccc(F)cc3)n2)C(F)(F)F)cc2cc(C3CC3)cnc12 | 12900
– | 9.20 | 4.1 | 120 | 7.96 | – | – | 6.51 | – | – | – | – | – | COc1cc(C(=O)NC[C@](O)(c2cc(C(C)(C)O)c(F)c(-c3ccc(F)cc3)n2)C(F)(F)F)cc2cccnc12 | 16000
– | 9.38 | 6.6 | 28 | 8.35 | – | – | 7.37 | – | – | – | – | – | COc1cc(C(=O)NC[C@](O)(c2cc(C(C)(C)O)c(F)c(-c3ccc(F)cc3)n2)C(F)(F)F)cc2cc(C)cnc12 | 14600
34 | 8.32 | 11 | 28 | 7.92 | – | – | – | – | – | – | – | – | COc1cc(C(=O)NC[C@](O)(c2cc3c(c(-c4ccc(F)cc4)n2)OC[C@]3(C)NS(C)(=O)=O)C(F)(F)F)ccc1OC[C@@H](C)O | 54300
– | 8.82 | – | – | 7.47 | – | – | 5.77 | – | – | – | – | – | COc1nc2c(OC)cc(C(=O)NC[C@](O)(c3cc(C(C)(C)O)c(F)c(-c4ccc(F)cc4)n3)C(F)(F)F)cc2cc1C | 31000
89 | 8.29 | 31 | 54 | 8.00 | – | – | – | – | – | 54 | 8.00 | 31 | COc1cc(C(=O)NC[C@](O)(c2cc3c(c(-c4ccc(F)cc4)n2)OC[C@]3(C)N)C(F)(F)F)ccc1OC[C@@H](C)O | 58400
2.51 | 8.44 | < 1.9 | – | 7.66 | – | – | – | – | – | – | – | – | CC(=O)N[C@@]1(C)COc2c1cc([C@@](O)(CNC(=O)c1cc(OC3CC3)c3ncc(F)cc3c1)C(F)(F)F)nc2-c1ccc(F)cc1 | 14000
– | 8.54 | – | – | 8.32 | – | – | – | – | – | – | – | – | COc1cc(C(=O)NC[C@](O)(c2nc(-c3ccc(F)cc3)c(Cl)c(C(C)(C)O)c2F)C(F)(F)F)cc2cc(C)cnc12 | 45800
– | – | < 1.9 | 19 | 8.44 | – | – | 7.01 | 8.77 | – | – | – | – | COc1cc(C(=O)NC[C@](O)(c2cc(C(C)(C)O)c(F)c(-c3ccc(F)cc3)n2)C(F)(F)F)cc2cc(C(F)F)cnc12 | 13200
– | – | – | – | 7.90 | – | – | – | 8.42 | – | – | – | – | COc1cc(C(=O)NC[C@](O)(c2cc(C(C)(C)O)c(F)c(-c3ccc(F)cc3)n2)C(F)(F)F)cc2cc(CF)cnc12 | 39800
– | 8.85 | 4.3 | – | 8.77 | – | – | – | – | – | – | – | – | COc1cc(C(=O)NC[C@](O)(c2cc(C(C)(C)O)c(Cl)c(-c3ccc(F)cc3)n2)C(F)(F)F)cc2cc(C)cnc12 | 21700
– | 9.44 | 3.7 | – | 8.89 | – | – | – | – | – | – | – | – | COc1cc(C(=O)NC[C@](O)(c2cc3c(c(-c4ccc(F)cc4)n2)OC[C@]3(C)NS(C)(=O)=O)C(F)(F)F)cc2cc(C)cnc12 | 11400
